According to patent publication US20050014689A1, “Remedies for life style-related diseases or cibophobia and method of screening the same” (priority 2001, published 2005):

System: clone 901 mRNA
Test: Effect of intracerebroventricular antisense DNA administration on food consumption of normal and obese mice
Assay type: in vivo
Details: 30 μg/mouse into lateral ventricle
Source text: reagent: clone 901 antisense DNA was a mixture of two kinds of 25mer antisense DNAs relative to the vicinity of the gene initiation codon and synthesis, thiolation and HPLC purification were committed to Nihon Bio Service Co., Ltd.
Test animal: male C57BL/6N (hereinafter normal mouse) and C57BL db/db (hereinafter obese mouse) (SPF grade) were purchased from Charles River, Japan, Inc. and CLEA JAPAN, INC., respectively, and after preliminary breeding, normal mice were used for the test at the age of 9 weeks and the obese mice were used for the test at the age of 11 weeks.
Breeding environment: The mice were bred in a room controlled to a temperature of not lower than 20° C. and not higher than 26° C., relative humidity of not less than 30% and not more than 70%, lighting cycle of 8:00-20:00 lighting and 20:00-8:00 lights-out. During breeding, the mice were allowed a free access to a solid feed (CE-2, CLEA JAPAN) and sterile distilled water.
As an antisense DNA administration liquid, an artificial cerebrospinal fluid (0.166 g/L CaCl2, 7.014 g/L NaCl, 0.298 g/L KCl, 0.203 g/L MgCl2.6H2O, 2.10 g/L NaHCO3) containing 7.5 μg/μl of antisense DNA was prepared. In addition, an artificial cerebrospinal fluid free of antisense DNA was used as a solvent control liquid.
The normal mice and obese mice were divided into two groups each, and after fasting overnight, an antisense DNA was administered at 4 μl/mouse (30 μg/mouse in the amount of antisense DNA) to one group and a solvent control liquid (4 μl/mouse) was administered into the lateral ventricle of the other group, simultaneously with the lighting at 8:00 a.m.
Feeding of mice was resumed immediately after administration, and food consumption was calculated at 12 hours after administration. […] The food consumption from 12 hr to 24 hr after administration was calculated. […] In the normal mice, no effect of antisense DNA of clone 901 was found.

## antisense DNA of clone 901: mixture of two thiolated 25mer antisense DNAs (SEQ ID No 3 and No 4) to the vicinity of the clone 901 initiation codon (antisense 1 GCTTCGCAGCGCTCGCTGGGCGGCG; antisense 2 AGTGGGCCACAGCTCCACATGGCAG; DNA, all phosphorothioate, methylation of C not given here)
Normal mice (C57BL/6N), 12 hr to 24 hr after administration
  effect on food consumption: no effect
Normal mice (C57BL/6N), immediately after administration to 12 hours
  effect on food consumption: food consumption-decreasing effect
Obese mice (C57BL db/db), 12 hr to 24 hr after administration
  effect on food consumption: suppressed to the same level with the normal mice
Obese mice (C57BL db/db), immediately after administration to 12 hours
  effect on food consumption: food consumption-decreasing effect
